Measurements published in ChEMBL document CHEMBL1135472 (J Med Chem, 2002).
One block for each compound: values may come before it. Calls of active or inactive are those of the source. The calls are words filed in the database; no cut-off is given here.

Assays:
[1] = biological target: T1, Seed linoleate 13S-lipoxygenase-1 (Glycine max, UniProt P08170); experiment: Inhibitory activity against soybean 1-lipoxygenase (SLO)
T1 sequence (P08170 whole entry): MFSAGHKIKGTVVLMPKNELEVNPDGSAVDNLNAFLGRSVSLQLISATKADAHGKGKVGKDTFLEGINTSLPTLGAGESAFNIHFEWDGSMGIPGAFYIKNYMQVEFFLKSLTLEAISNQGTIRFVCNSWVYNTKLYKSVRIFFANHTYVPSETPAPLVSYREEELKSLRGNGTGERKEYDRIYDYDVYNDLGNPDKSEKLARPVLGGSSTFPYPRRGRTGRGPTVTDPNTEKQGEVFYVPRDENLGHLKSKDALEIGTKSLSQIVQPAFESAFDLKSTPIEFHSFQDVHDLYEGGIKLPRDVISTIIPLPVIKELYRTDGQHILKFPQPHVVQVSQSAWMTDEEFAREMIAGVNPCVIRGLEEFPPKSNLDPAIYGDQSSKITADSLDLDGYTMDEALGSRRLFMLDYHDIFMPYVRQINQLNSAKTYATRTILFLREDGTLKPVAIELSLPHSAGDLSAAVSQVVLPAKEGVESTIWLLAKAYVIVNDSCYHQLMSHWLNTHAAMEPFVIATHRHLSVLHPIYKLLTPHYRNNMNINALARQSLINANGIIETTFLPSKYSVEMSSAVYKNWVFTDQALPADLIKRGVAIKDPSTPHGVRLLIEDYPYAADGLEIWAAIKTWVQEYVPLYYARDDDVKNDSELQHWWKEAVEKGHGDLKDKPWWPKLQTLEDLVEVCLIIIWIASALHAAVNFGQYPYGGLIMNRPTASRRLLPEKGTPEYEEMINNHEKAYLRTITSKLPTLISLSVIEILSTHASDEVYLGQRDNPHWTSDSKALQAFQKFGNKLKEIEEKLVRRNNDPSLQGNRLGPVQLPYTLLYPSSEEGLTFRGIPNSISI

[2] = biological target: T2, Polyunsaturated fatty acid lipoxygenase ALOX12 (Homo sapiens, UniProt P18054); experiment: Inhibitory activity against human platelet 12-lipoxygenase (12-HLO)
T2 sequence (P18054 whole entry): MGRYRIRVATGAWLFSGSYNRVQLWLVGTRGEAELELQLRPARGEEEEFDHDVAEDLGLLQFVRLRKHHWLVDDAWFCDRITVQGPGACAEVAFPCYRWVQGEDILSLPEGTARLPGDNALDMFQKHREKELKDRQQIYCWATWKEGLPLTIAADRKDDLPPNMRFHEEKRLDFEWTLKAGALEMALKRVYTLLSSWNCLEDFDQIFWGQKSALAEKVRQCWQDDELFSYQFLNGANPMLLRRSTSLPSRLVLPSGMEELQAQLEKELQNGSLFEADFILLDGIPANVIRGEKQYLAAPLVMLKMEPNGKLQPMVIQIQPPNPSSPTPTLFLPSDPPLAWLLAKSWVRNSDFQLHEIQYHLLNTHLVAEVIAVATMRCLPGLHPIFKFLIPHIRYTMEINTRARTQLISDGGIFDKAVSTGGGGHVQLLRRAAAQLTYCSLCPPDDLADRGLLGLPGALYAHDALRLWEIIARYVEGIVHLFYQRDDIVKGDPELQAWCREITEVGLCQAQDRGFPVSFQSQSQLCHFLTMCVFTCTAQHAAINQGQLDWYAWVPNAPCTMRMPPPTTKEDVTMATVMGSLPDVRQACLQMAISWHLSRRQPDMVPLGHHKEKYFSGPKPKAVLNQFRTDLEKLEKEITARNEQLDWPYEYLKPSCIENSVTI

[3] = biological target: T3, Polyunsaturated fatty acid lipoxygenase ALOX12 (Homo sapiens) (UniProt P18054); experiment: % inhibition against human platelet 12-lipoxygenase (12-HLO); conditions: concentration not given here
T3 sequence (whole entry): T2 sequence (P18054 whole entry)

[4] = biological target: T4, Seed linoleate 13S-lipoxygenase-1 (Glycine max) (UniProt P08170); experiment: % inhibition against soybean 1-lipoxygenase (SLO)
T4 sequence (whole entry): T1 sequence (P08170 whole entry)

[5] = biological target: T5, Polyunsaturated fatty acid lipoxygenase ALOX15 (Homo sapiens) (UniProt P16050); experiment: Inhibitory activity against human reticulocyte 15-lipoxygenase (15-HLO); conditions: concentration not given here
T5 sequence (whole entry): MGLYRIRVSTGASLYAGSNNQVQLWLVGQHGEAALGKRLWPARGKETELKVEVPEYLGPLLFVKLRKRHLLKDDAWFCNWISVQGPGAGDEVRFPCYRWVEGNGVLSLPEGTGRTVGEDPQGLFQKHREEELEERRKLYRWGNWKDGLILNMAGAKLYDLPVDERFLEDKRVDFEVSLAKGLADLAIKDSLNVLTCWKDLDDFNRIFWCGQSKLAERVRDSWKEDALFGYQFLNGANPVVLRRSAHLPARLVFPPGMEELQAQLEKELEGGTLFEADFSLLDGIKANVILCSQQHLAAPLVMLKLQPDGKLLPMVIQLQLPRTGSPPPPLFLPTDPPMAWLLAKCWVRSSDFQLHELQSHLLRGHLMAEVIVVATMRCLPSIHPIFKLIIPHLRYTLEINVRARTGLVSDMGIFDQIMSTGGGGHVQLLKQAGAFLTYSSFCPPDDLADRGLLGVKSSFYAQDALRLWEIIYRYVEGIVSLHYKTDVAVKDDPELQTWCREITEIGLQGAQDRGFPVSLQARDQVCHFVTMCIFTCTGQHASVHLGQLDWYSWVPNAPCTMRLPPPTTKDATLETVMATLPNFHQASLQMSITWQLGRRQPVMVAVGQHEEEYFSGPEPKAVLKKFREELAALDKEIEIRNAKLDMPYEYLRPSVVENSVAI

[6] = biological target: T5, Polyunsaturated fatty acid lipoxygenase ALOX15 (Homo sapiens); experiment: Compound was evaluated for the percent increase in activation concentration of human reticulocyte 15-lipoxygenase (15-HLO)
[7] = biological target: T6, Polyunsaturated fatty acid lipoxygenase ALOX15 (Homo sapiens, UniProt P16050); experiment: Concentration that cause 50% activation of human reticulocyte 15-lipoxygenase (15-HLO)
T6 sequence (P16050 whole entry): T5 sequence (whole entry)

[8] = biological target: T3, Polyunsaturated fatty acid lipoxygenase ALOX12 (Homo sapiens); experiment: percent inhibition against human platelet 12-lipoxygenase (12-HLO); NI is no inhibition
[9] = Inhibition ratio of human reticulocyte 15-lipoxygenase (15-HLO)/ human platelet 12-lipoxygenase (12-HLO); NI is no inhibition
[10] = biological target: T5, Polyunsaturated fatty acid lipoxygenase ALOX15 (Homo sapiens); experiment: Inhibitory activity against human reticulocyte 15-lipoxygenase (15-HLO); NI is no inhibition
[11] = biological target: T4, Seed linoleate 13S-lipoxygenase-1 (Glycine max); experiment: percent inhibition against soybean 1-lipoxygenase (SLO);NI is no inhibition

- IC50 [1]: 140 nM
- IC50 [2]: 2200 nM
SMILES: C[C@H](Cc1ccc(O)c(O)c1)[C@@H](C)Cc1ccc2c(c1)OC(C)(C)O2

- inhibition [3]: 0%
- inhibition [4]: 0%
- inhibition [5]: 0%
SMILES: C[C@H](Cc1ccc(OCOC(=O)C(C)(C)C)c(OCOC(=O)C(C)(C)C)c1)[C@@H](C)Cc1ccc(OCOC(=O)C(C)(C)C)c(OCOC(=O)C(C)(C)C)c1

- IC50 [1]: 65 nM
- IC50 [2]: 360 nM
SMILES: C[C@H](Cc1cc(O)c(O)cc1Cl)[C@@H](C)Cc1cc(O)c(O)cc1Cl

- inhibition [3]: 0%
- activation [6]: 22%
- inhibition [4]: 0%
- AC50 [7]: 300 nM
SMILES: CCC(=O)Oc1ccc(C[C@@H](C)[C@@H](C)Cc2ccc(OC(=O)CC)c(OC(=O)CC)c2)cc1OC(=O)CC

- inhibition [8]: inactive
- inhibition [9]: inactive
- inhibition [10]: inactive
- inhibition [11]: inactive
SMILES: COc1cc(C[C@@H](C)[C@@H](C)Cc2cc(OC)c(OC)cc2NC(C)=O)c(NC(C)=O)cc1OC

- IC50 [2]: 26000 nM
SMILES: CC(=O)c1cc(O)c(O)cc1C[C@@H](C)[C@@H](C)Cc1cc(O)c(O)cc1C(C)=O

- inhibition [3]: 0%
- inhibition [4]: 0%
- inhibition [5]: 0%
SMILES: CC(=O)Oc1ccc(C[C@@H](C)[C@@H](C)Cc2ccc(OC(C)=O)c(OC(C)=O)c2)cc1OC(C)=O

- inhibition [3]: 0%
- inhibition [4]: 0%
- inhibition [5]: 0%
SMILES: COc1cc(C[C@@H](C)[C@@H](C)Cc2cc(OC)c(OC)cc2[N+](=O)[O-])c([N+](=O)[O-])cc1OC

- IC50 [1]: 140 nM
- IC50 [2]: 3100 nM
SMILES: CCc1cc(O)c(O)cc1C[C@@H](C)[C@@H](C)Cc1cc(O)c(O)cc1CC

- inhibition [8]: inactive
- inhibition [9]: inactive
- inhibition [10]: inactive
- inhibition [11]: inactive
SMILES: COc1cc(Br)c(C[C@@H](C)[C@@H](C)Cc2cc(OC)c(OC)cc2Br)cc1OC

- inhibition [3]: 0%
- activation [6]: 70%
- inhibition [4]: 0%
- AC50 [7]: 200 nM
SMILES: CCCCCC(=O)Oc1ccc(C[C@@H](C)[C@@H](C)Cc2ccc(OC(=O)CCCCC)c(OC(=O)CCCCC)c2)cc1OC(=O)CCCCC

- inhibition [8]: inactive
- inhibition [9]: inactive
- inhibition [10]: inactive
- inhibition [11]: inactive
SMILES: COc1ccc(C[C@@H](C)[C@@H](C)Cc2ccc(OC)c(OC)c2)cc1OC

- inhibition [3]: 0%
- inhibition [4]: 0%
- inhibition [5]: 0%
SMILES: CCC(=O)Oc1cc(C[C@@H](C)[C@@H](C)Cc2cc(OC(=O)CC)c(OC(=O)CC)cc2[N+](=O)[O-])c([N+](=O)[O-])cc1OC(=O)CC

- inhibition [3]: 0%
- activation [6]: 70%
- inhibition [4]: 0%
- AC50 [7]: 500 nM
SMILES: CC(C)C(=O)Oc1ccc(C[C@@H](C)[C@@H](C)Cc2ccc(OC(=O)C(C)C)c(OC(=O)C(C)C)c2)cc1OC(=O)C(C)C

- IC50 [1]: 57 nM
- IC50 [2]: 430 nM
SMILES: C[C@H](Cc1cc(O)c(O)cc1Br)[C@@H](C)Cc1cc(O)c(O)cc1Br

- inhibition [8]: inactive
- inhibition [9]: inactive
- inhibition [10]: inactive
- inhibition [11]: inactive
SMILES: COc1cc(C[C@@H](C)[C@@H](C)Cc2cc(OC)c(OC)cc2C(C)=O)c(C(C)=O)cc1OC

- IC50 [1]: 170 nM
- IC50 [2]: 14000 nM
SMILES: COc1cc(C[C@@H](C)[C@@H](C)Cc2ccc(O)c(O)c2)ccc1O

SMILES: C[C@H](Cc1cc(O)c(O)cc1[N+](=O)[O-])[C@@H](C)Cc1cc(O)c(O)cc1[N+](=O)[O-]
- IC50 [2]: 360 nM

- inhibition [8]: inactive
- inhibition [9]: inactive
- inhibition [10]: inactive
- inhibition [11]: inactive
SMILES: COc1cc(Cl)c(C[C@@H](C)[C@@H](C)Cc2cc(OC)c(OC)cc2Cl)cc1OC

- inhibition [3]: 0%
- inhibition [4]: 0%
- inhibition [5]: 0%
SMILES: COc1cc(N)c(C[C@@H](C)[C@@H](C)Cc2cc(OC)c(OC)cc2N)cc1OC

- inhibition [3]: 0%
- activation [6]: 77%
- inhibition [4]: 0%
- AC50 [7]: 300 nM
SMILES: CCCC(=O)Oc1ccc(C[C@@H](C)[C@@H](C)Cc2ccc(OC(=O)CCC)c(OC(=O)CCC)c2)cc1OC(=O)CCC
